{"source": "patent US20230286995A1", "about": "“METABOLICALLY STABLE PYRIMIDINYL DIHYDROQUINOXALINONES AS TUBULIN POLYMERIZATION INHIBITORS” (UNIVERSITY OF TENNESSEE RESEARCH FOUNDATION, priority 2022, published 2023)", "key": {"M14/LCC6MDR1": {"tested_on": "M14/LCC6MDR1", "experiment": "Cytotoxicity assay (MTS, 72 h)", "type": "cell-based", "settings": "Homo sapiens, read-out: IC50 ± SEM (nM) M14/LCC6MDR1"}, "[1]": {"tested_on": "PC-3/TxR xenograft tumors", "experiment": "Subcutaneous PC-3/TxR xenograft model", "type": "in vivo", "settings": "paclitaxel 10 mg/kg, 1 dose/week"}, "Mia PaCa-2 [2]": {"tested_on": "Mia PaCa-2", "experiment": "Colony formation assay (PDAC)", "type": "cell-based, human", "settings": "tested 1, 2.5, 5 nM", "description": "Cells were seeded at 1000 cells per well in 6-well plates in triplicates and treated with vehicle control or 1-5 nmol/L test compounds for 11 to 14 days. The colonies were fixed with 100% methanol and stained with 0.5% crystal violet. Colony area was quantified with Image J software."}, "A549/TxR": {"tested_on": "A549/TxR", "experiment": "cells", "settings": "Homo sapiens, read-out: IC50 ± SEM (nM) A549/TxR"}, "Mia PaCa-2 cells": {"tested_on": "Mia PaCa-2 cells", "experiment": "Scratch migration assay (PDAC)", "type": "cell-based, human", "settings": "5m 2 nM, PTX 4 nM, 48 h; listed as PTX", "description": "The Mia PaCa-2 cells (25,000 cells/well) were seeded in 96-well plates and allowed to adhere overnight. At 80-90% confluence, scratch was made with a wound maker. After washing off the debris, medium was replaced and tested compounds were added. Cells were live monitored with IncuCyte and pictures obtained every 2 h. Compared with the control, the wound width of cells under different treatment conditions was quantified according to the endpoint width over starting point."}, "A375/TxR xenografts": {"tested_on": "A375/TxR xenografts", "experiment": "In vivo A375/TxR melanoma xenograft model", "set-up": "species or system NSG mice"}, "[3]": {"tested_on": "A2780/TxR ovarian cancer xenografts", "experiment": "Orthotopic A2780/TxR ovarian cancer xenograft model", "settings": "paclitaxel 5 mg/kg IV"}, "PANC-1 [4]": {"tested_on": "PANC-1", "experiment": "Cytotoxicity assay (MTS, 72 h)", "type": "cell-based", "settings": "Homo sapiens, Example 7, FIG. 20, read-out: calculated IC50, PANC-1 cells", "description": "Mia PaCa-2 and PANC-1 cells were seeded in 96-well plates at 4000 and 5000 cells per well, respectively.\nCytotoxicity Assay. […] Each experiment consisted of four replicates."}, "PANC-1 [5]": {"tested_on": "PANC-1", "experiment": "Colony formation assay (PDAC)", "type": "cell-based, human", "settings": "tested 1, 2.5, 5 nM"}, "MDA-MB-231/VxR": {"tested_on": "MDA-MB-231/VxR", "experiment": "Cytotoxicity assay (MTS, 72 h)", "type": "cell-based", "settings": "Homo sapiens, MDA-MB-231, read-out: IC50 ± SEM (nM) MDA-MB-231/VXR"}, "[6]": {"target": "T1, tubulin protein from bovine brain (Bos taurus, UniProt P81947+Q6B856)", "T1 construct": "tubulin protein from bovine brain origin; purchased Cytoskeleton, Denver, Colo; host or cells: bovine brain", "T1 sequence (P81947 whole entry)": "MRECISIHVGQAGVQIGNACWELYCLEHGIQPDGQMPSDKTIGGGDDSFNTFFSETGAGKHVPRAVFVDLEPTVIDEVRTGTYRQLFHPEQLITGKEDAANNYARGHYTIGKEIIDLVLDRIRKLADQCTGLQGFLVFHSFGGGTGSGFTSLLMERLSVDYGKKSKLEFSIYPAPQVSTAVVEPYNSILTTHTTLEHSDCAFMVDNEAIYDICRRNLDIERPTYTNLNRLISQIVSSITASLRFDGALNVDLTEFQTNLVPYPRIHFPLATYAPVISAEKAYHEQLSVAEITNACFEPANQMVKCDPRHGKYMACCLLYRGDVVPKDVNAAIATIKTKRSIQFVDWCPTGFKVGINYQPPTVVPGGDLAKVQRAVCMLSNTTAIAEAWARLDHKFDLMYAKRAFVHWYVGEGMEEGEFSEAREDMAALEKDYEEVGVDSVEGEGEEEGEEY", "T1 sequence (Q6B856 whole entry)": "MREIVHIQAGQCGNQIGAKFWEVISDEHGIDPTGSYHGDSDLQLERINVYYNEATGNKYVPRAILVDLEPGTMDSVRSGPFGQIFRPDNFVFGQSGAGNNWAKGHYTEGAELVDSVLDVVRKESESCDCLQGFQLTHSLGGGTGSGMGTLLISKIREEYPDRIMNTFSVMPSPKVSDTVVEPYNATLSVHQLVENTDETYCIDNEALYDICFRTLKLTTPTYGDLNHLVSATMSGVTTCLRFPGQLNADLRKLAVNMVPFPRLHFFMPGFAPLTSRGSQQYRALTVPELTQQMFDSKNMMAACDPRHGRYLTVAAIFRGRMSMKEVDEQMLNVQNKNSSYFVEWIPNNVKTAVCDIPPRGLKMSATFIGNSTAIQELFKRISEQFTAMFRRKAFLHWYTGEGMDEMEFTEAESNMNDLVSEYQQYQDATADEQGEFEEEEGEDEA", "experiment": "Tubulin polymerization assay (FIG. 5A)", "type": "biochemical", "settings": "10 μM, cell-free", "description": "Tubulin polymerization reaction was initiated by adding 100 μL of tubulin protein from bovine brain origin (3 mg/ml, Cytoskeleton, Denver, Colo.) into 10 μM of test compounds in general tubulin buffer (80 mM PIPES, 2.0 mM MgCl2, 0.5 mM EGTA, and 1 mM GTP) according to the manufacturer protocol. The reaction kinetics were recorded in every thirty seconds for 1 h at 37° C. and a microplate reader equipped with absorbance settings at 340 nm wavelength was used for this purpose. The experiment was performed in duplicates."}, "MDA-MB-231": {"tested_on": "MDA-MB-231", "experiment": "Cytotoxicity assay (MTS, 72 h)", "type": "cell-based", "settings": "Homo sapiens, MDA-MB-231, read-out: IC50 ± SEM (nM) MDA-MB-231; Table 2"}, "porcine brain tubulin": {"target": "T2, porcine brain tubulin (Sus scrofa, UniProt P02550+P02554)", "T2 construct": "tubulin mixture containing porcine brain tubulin (3 mg/mL); purchased Cytoskeleton, Inc. T-238P; host or cells: porcine brain", "T2 sequence (P02550 whole entry)": "as the sequence (P81947 whole entry) above, with L136S, S232G, I265A, S340T, Q358E counted along it", "T2 sequence (P02554 whole entry)": "as the sequence (Q6B856 whole entry) above, with T55A, M170V, S296A, I316V, E440G, G441E counted along it", "experiment": "Tubulin polymerization inhibitory assay (FIG. 29A)", "type": "biochemical", "settings": "10 μM, 37° C.; DMSO control 0.3", "description": "Tubulin polymerization inhibitory assay: In vitro tubulin polymerization assay was carried out according to the manufacturers' instructions (Cytoskeleton). Briefly, 10 μM of 5v was added into tubulin protein (3 mg/mL, purity>99%), and the mixture was transferred into a microplate reader and incubated at 37° C. […] Colchicine and paclitaxel were used as positive controls. […] The assay was carried out in duplicate."}, "MDA-MB-231/TxR": {"tested_on": "MDA-MB-231/TxR", "experiment": "Cytotoxicity assay (MTS, 72 h)", "type": "cell-based", "settings": "Homo sapiens, read-out: IC50 ± SEM (nM) MDA-MB-231/TxR, Table 2, paclitaxel-resistant"}, "Mia PaCa-2 [7]": {"tested_on": "Mia PaCa-2", "experiment": "Cytotoxicity assay (MTS, 72 h)", "type": "cell-based", "settings": "Homo sapiens, Example 7, FIG. 20, read-out: calculated IC50, Mia PaCa-2 cells"}, "A-253 and Detroit 562": {"tested_on": "A-253 and Detroit 562", "experiment": "Cytotoxicity in head and neck cancer cell lines", "type": "cell-based", "settings": "Homo sapiens; FIG. 39A; read-out: IC50 values, range over A-253 and Detroit 562", "description": "A panel of dihydroquinoxalinones were tested in two head and neck cancer cell lines, A-253 and Detroit 562. A-253 cells are a human salivary epidermoid carcinoma cell line, whereas Detroit 562 is a head and neck squamous cell carcinoma (HNSCC). Oral cancer is the most common type of head and neck cancer and more than 90% of oral cancers are either oral or oropharyngeal squamous cell carcinoma (SCC). A major clinical dilemma is chemotherapy efficiency targeted for head and neck squamous cell carcinoma (HNSCC). The inability to successfully complete cancer treatment utilizing a standard surgical approach due to an advanced stage of HNSCC and/or resistance of SCC cells to conventional chemotherapy and/or radiotherapy leads to a continuous search for new compounds with cytostatic activity and minor side effects.\nFIGS. 39B and 39C illustrate the graphical representation of the data. […] For example, at treatment levels as low of 0.5 nM, 12k was able to prevent head and neck cancer cell proliferation almost completely, whereas it required 5 nM of 17ya to achieve similar antiproliferation."}, "[8]": {"tested_on": "human melanoma and breast cancer cell lines", "experiment": "Cytotoxicity, all tested cell lines of Table 1", "type": "cell-based", "settings": "Homo sapiens, melanoma and breast lines of Table 1; read-out: IC50 values, range over all tested cell lines"}, "[9]": {"tested_on": "taxane-resistant melanoma, breast, and lung cancer cells", "experiment": "Cytotoxicity, regular and taxane-resistant lines of Table 2", "type": "cell-based", "settings": "Homo sapiens; taxane-resistant melanoma, breast, and lung cancer cells; read-out: IC50 values, range against taxane-resistant cells"}, "A375/TxR": {"tested_on": "A375/TxR", "experiment": "Cytotoxicity assay (MTS, 72 h)", "type": "cell-based", "settings": "Homo sapiens, Table 2, paclitaxel-resistant, read-out: IC50 ± SEM (nM) A375/TxR"}, "DU-145/VxR": {"tested_on": "DU-145/VxR", "experiment": "Cytotoxicity assay (MTS, 72 h)", "type": "cell-based", "settings": "Homo sapiens, DU-145, read-out: IC50 ± SEM (nM) DU-145/VXR"}, "RPMI-7951": {"tested_on": "RPMI-7951", "experiment": "Cytotoxicity assay (MTS, 72 h)", "type": "cell-based", "settings": "Homo sapiens, Table 1, read-out: IC50 (nM) Melanoma RPMI-7951"}, "logP": {"experiment": "logP", "type": "physicochemical", "settings": "Table 1; method not described"}}, "note": "Where a name gives a salt, the structure may show the parent alone."}
{"compound": "COc1cc2c(c(OC)c1OC)-c1ccc(OC)c(=O)cc1[C@@H](NC(C)=O)CC2", "note": "[Colchicine, reference compound]", "values": [{"measurement": "IC50", "setting": "M14/LCC6MDR1", "value": "> 1000", "unit": "nM"}]}
{"compound": "CC(=O)O[C@H]1C(=O)[C@@]2(C)[C@H]([C@H](OC(=O)c3ccccc3)[C@]3(O)C[C@H](OC(=O)[C@H](O)[C@@H](NC(=O)c4ccccc4)c4ccccc4)C(C)=C1C3(C)C)[C@]1(OC(C)=O)CO[C@@H]1C[C@@H]2O", "note": "[Paclitaxel, reference compound]", "values": [{"measurement": "tumor weight reduction", "setting": "[1]", "value": "insignificant tumor weight reduction"}, {"measurement": "dose at which colony formation was completely inhibited", "setting": "Mia PaCa-2 [2]", "value": 5, "unit": "nM"}, {"measurement": "IC50", "setting": "A549/TxR", "value": "> 1000", "unit": "nM"}, {"measurement": "cell migration / wound healing", "setting": "Mia PaCa-2 cells", "value": "inhibited cell migration over 48 hours"}, {"measurement": "spontaneous lung metastasis", "setting": "A375/TxR xenografts; H&E and anti-human mitochondria IHC", "value": "no effect on the lung spontaneous metastasis"}, {"measurement": "tumor-suppressive effect", "setting": "A375/TxR xenografts; paclitaxel 4 mg/kg IV twice a week", "value": "no significant tumor-suppressive effect"}, {"measurement": "effect on tumor growth", "setting": "A375/TxR xenografts; paclitaxel 10 mg/kg IV, 2 times per week", "value": "ineffective"}, {"measurement": "effect on A2780/TxR model", "setting": "[3]", "value": "limited effect"}, {"measurement": "IC50", "setting": "PANC-1 [4]", "value": 1.1, "unit": "nM"}, {"measurement": "dose with nearly complete inhibition of colony formation", "setting": "PANC-1 [5]", "value": 5, "unit": "nM"}, {"measurement": "IC50", "setting": "MDA-MB-231/VxR", "value": "3.4 ± 0.5", "unit": "nM"}, {"measurement": "effect on microtubule polymerization", "setting": "[6]", "value": "polymerization enhancement"}, {"measurement": "IC50", "setting": "MDA-MB-231", "value": "2.3 ± 0.4", "unit": "nM"}, {"measurement": "A340 at which tubulin assembly stabilized", "setting": "porcine brain tubulin", "value": "approximately 0.4"}, {"measurement": "IC50", "setting": "MDA-MB-231/TxR", "value": "> 50", "unit": "nM"}, {"measurement": "IC50", "setting": "Mia PaCa-2 [7]", "value": 2.5, "unit": "nM"}]}
{"compound": "CCNc1nc2c(c(N3CC(=O)Nc4cc(OC)ccc43)n1)CCC2", "note": "[5v HCl, 4-(2-(ethylamino)-6,7-dihydro-5H-cyclopenta[d]pyrimidin-4-yl)-7-methoxy-3,4-dihydroquinoxalin-2(1H)-one]", "values": [{"measurement": "IC50", "setting": "A-253 and Detroit 562", "value": "0.52 to 3.2", "unit": "nM"}]}
{"compound": "CCNc1nc(N2CC(=O)Nc3cc(OC)ccc32)c2ncccc2n1", "note": "[Compound 5t, 4-(2-(ethylamino)pyrido[3,2-d]pyrimidin-4-yl)-7-methoxy-3,4-dihydroquinoxalin-2(1H)-one]", "values": [{"measurement": "IC50", "setting": "[8]", "value": "0.4 to 26", "unit": "nM"}, {"measurement": "IC50", "setting": "[9]", "value": "0.3 to 5", "unit": "nM"}, {"measurement": "IC50", "setting": "A549/TxR", "value": "5.4 ± 1.7", "unit": "nM"}, {"measurement": "IC50", "setting": "A375/TxR", "value": 1.3, "unit": "nM"}, {"measurement": "IC50", "setting": "MDA-MB-231/VxR", "value": "2.9 ± 0.4", "unit": "nM"}, {"measurement": "effect on microtubule polymerization", "setting": "[6]", "value": "significantly inhibited microtubule polymerization"}, {"measurement": "IC50", "setting": "DU-145/VxR", "value": "1.8 ± 0.4", "unit": "nM"}, {"measurement": "IC50", "setting": "RPMI-7951", "value": "0.8 ± 0.1", "unit": "nM"}, {"measurement": "logP", "setting": "logP", "value": 1.72}]}
